Assay results from patent publication US12083097B2, “Dual TNFR1 antagonists and TNER2 agonists for use in renal diseases” (SERODUS AS, priority 2020, dated 2024).
Entries after “also recorded” stand apart in the source; their conditions may differ.

What was measured:
sTNFR1 = experiment: Urine sTNFR1-to-creatinine in Px-UNx diabetic nephropathy rat model (ELISA); assay type: in vivo; settings: for urine sTNFR1 corrected for creatinine, pooled data from Table 2: Treated Px-UNx rats (n = 33), doses 1, 3, 10 mg/kg pooled
Experimental: Three active doses of 1, 3 and 10 mg/kg of compound 1 were administered orally once daily to 90% pancreatectomized and uninephrectomized rats over 49 days. A control group received placebo, and another control group underwent surgery to mimic the 90% pancreatectomy (Px) and uninephrectomy (UNx) without affecting the function of the kidney or the pancreas (Sham model). The Sham group also received placebo. The conclusion from the rat study was that compound 1 reduced the level of sTNFR1 in the urine over the full treatment period (see FIG. 2). […] The daily doses in the rat model may be converted into equivalent doses in humans (Guidance for Industry: Estimating the Maximum Safe Starting Dose in Initial Clinical Trials for Therapeutics in Adult Healthy Volunteers, 2005). Thus, the 1 mg/kg daily dose corresponds to a human daily dose of 0.16 mg/kg or 11.2 mg for a 70-kg patient. Likewise, a 3 mg/kg daily dose corresponds to a human daily dose of 0.48 mg/kg or 33.6 mg for a 70-kg patient. Finally, a 10 mg/kg daily dose corresponds to a human daily dose of 1.6 mg/kg or 112.7 mg for a 70-kg patient.
(§1) In the examples below, the sTNFR1 and sTNFR2 were measured using the commercial ELISA kits mouse/rat TNFRI/TNFRII Quantikine ELISA kits from R&D Systems according to the manufacturers protocol. However, for the purpose of measuring the sTNFR1 and sTNFR2 in humans for determining the relevant population groups according the present invention, the method described in Krolewski A. S. Diabetes Care 2015; 38:954-962 and Krolewski A. S. et al. Kidney Int. 2017 June; 91(6): 1300-1311 should be used.
(§2) The pancreatectomy and uninephrectomy (see below) were conducted during a single surgical procedure (Secher T et al. Diabetes 2018 July; 67(Supplement 1)). Animals were operated in a randomized fashion during several consecutive surgical days. After an overnight full-fast with grids installed in the cages, the rats were pancreatectomized and uninephrectomized under isoflurane anesthesia. Pre-operative analgesia, antibiotics and fluid replacement were administered. Rats were not offered any food from one day before to one day after the surgery, From the second day after surgery they were fed ad libitum.
(§3) In short, the 90% pancreatectomy is performed by removing the complete portion of the tail, body and a part of the pancreatic head by gentle abrasion with dental applicator. The major blood vessels to the stomach, spleen and gut are left intact so no other organs are compromised.
(§4) Briefly, the right kidney is visited and the right ureter, kidney artery and kidney vein identified, and ligated with suture. Hereafter, the right kidney is removed.
(§5) The sham operation is conducted to mimic the Px-UNx surgical procedure as best as possible. In brief, anesthesia and analgesia as well as opening and closuring the abdominal cavity are conducted as described above. After the abdominal cavity is opened, the pancreas and right kidney will be exposed, but left untouched and intact.
Rats were placed individually in metabolic cages for 16 h from the afternoon to the next morning. Randomized subsets of the study groups were placed in the cages over several days (as there were fewer cages than rats). Rats were supplied with chow and water ad libitum. Cage enrichment (igloo, plastic stick to sit on) was included if possible. Total urine volume was recorded, and urine stored at −80° C. Large amounts were aliquoted in several 0.5 ml Eppendorph tubes prior to freezing.
Urine samples were stored at −80° C. until analysis. sTNFR1 in rat urine was measured using commercial ELISA kits (R&D Systems mouse/rat TNFRI/TNFRII Quantikine ELISA kits) according to the manufacturer's instructions. Urine creatinine was measured using the CREP2 kit (Roche Diagnostics, Germany) on the Cobas™ C-501 autoanalyzer as per the manufacturer's instructions. Urinary albumin was measured using the Bethyl Laboratories rat albumin ELISA as per the manufacturer's instructions. […]

sTNFR2 = experiment: Urine sTNFR2-to-creatinine in Px-UNx diabetic nephropathy rat model (ELISA); assay type: in vivo; settings: for urine concentration of sTNFR2 corrected for urine creatinine: Group 3, Px-UNx rats, 1 mg/kg
Experimental: as §1, §2, §3, §4, §5
Rats were placed individually in metabolic cages for 16 h from the afternoon to the next morning. […] Total urine volume was recorded, and urine stored at −80° C. […]
Urine samples were stored at −80° C. until analysis. sTNFR1 in rat urine was measured using commercial ELISA kits (R&D Systems mouse/rat TNFRI/TNFRII Quantikine ELISA kits) according to the manufacturer's instructions. Urine creatinine was measured using the CREP2 kit (Roche Diagnostics, Germany) on the Cobas™ C-501 autoanalyzer as per the manufacturer's instructions. Urinary albumin was measured using the Bethyl Laboratories rat albumin ELISA as per the manufacturer's instructions. The urinary albumin-to-creatinine ratio (UACR) was calculated. […]
Likewise, the urine concentrations of sTNFR2 corrected for urine concentration of creatinine (pg/mg) were measured at baseline and after 4 and 7 weeks in group 3.

[1] = tested on: patients with diabetic nephropathy; experiment: Clinical Phase 2a study, ACR in patients with diabetic nephropathy; assay type: in vivo, human; settings: for Average baseline ACR / Average ACR (4 weeks): doses 0.3 and 0.625 mg/kg daily pooled
Experimental: A clinical Phase 2a study with compound 1 was conducted in patients with diabetic nephropathy. The patients were divided into two different subgroups having either macroalbuminuria (ACR>300 mg/g) or microalbuminuria (ACR 30-300 mg/g), and each subgroup were treated with 0.3 mg of compound 1/kg daily or 0.625 mg of compound 1/kg daily for 4 weeks.

O=C(O)CC/C=C\C[C@@H]1CO[C@H](c2ccccc2Cl)O[C@@H]1c1ccccc1O [compound 1, (Z)-6-((2S,4S,5R)-2-(2-chlorophenyl)-4-(2-hydroxyphenyl)-1,3-dioxan-cis-5-yl) hex-4-enoic acid] was tested, and the “urine concentration of sTNFR1 corrected for urine creatinine” value (“urine concentration of sTNFR1 corrected” for short) (sTNFR1; Group 3, Px-UNx rats, 1 mg/kg orally once daily, 0 weeks (baseline)) was 243.38 pg/mg, the “urine concentration of sTNFR1 corrected” value (sTNFR1; Group 3, Px-UNx rats, 1 mg/kg orally once daily, 4 weeks) was 373.28 pg/mg and the “urine concentration of sTNFR1 corrected” value (sTNFR1; Group 3, Px-UNx rats, 1 mg/kg orally once daily, 7 weeks) was 345.46 pg/mg. For the same compound, the “urine concentration of sTNFR1 corrected” value (sTNFR1; Group 4, Px-UNx rats, 3 mg/kg orally once daily, 0 weeks (baseline)) was 236.29 pg/mg, the “urine concentration of sTNFR1 corrected” value (sTNFR1; Group 4, Px-UNx rats, 3 mg/kg orally once daily, 4 weeks) was 313.80 pg/mg and the “urine concentration of sTNFR1 corrected” value (sTNFR1; Group 4, Px-UNx rats, 3 mg/kg orally once daily, 7 weeks) was 369.65 pg/mg. The “urine concentration of sTNFR1 corrected” value (sTNFR1; Group 5, Px-UNx rats, 10 mg/kg orally once daily, 0 weeks (baseline)) was 220.27 pg/mg, the “urine concentration of sTNFR1 corrected” value (sTNFR1; Group 5, Px-UNx rats, 10 mg/kg orally once daily, 4 weeks) was 348.50 pg/mg and the “urine concentration of sTNFR1 corrected” value (sTNFR1; Group 5, Px-UNx rats, 10 mg/kg orally once daily, 7 weeks) was 375.03 pg/mg. For the same compound, the “corrected urine sTNFR1 level versus placebo group” value (sTNFR1; Px-UNx rats, 1, 3, 10 mg/kg, 4 and 7 weeks, compared with Px-UNx placebo) was “capable of decreasing the level of sTNFR1; also recorded: consistently below the values for the placebo group”, the “difference in sTNFR1 effect between dosage levels” value (sTNFR1; Px-UNx rats, 1, 3 or 10 mg/kg) was “no statistically significant difference between dosage levels” and the “change in urine sTNFR1 from baseline versus placebo (FIG. 2)” value (sTNFR1; Px-UNx rats, pooled doses, 7-week period) was “significantly less than for the placebo control group”. For the same compound, the “urine sTNFR1 corrected for creatinine, pooled data from Table 2” value (from here on “urine sTNFR1 corrected for creatinine”) (sTNFR1; 0 weeks (baseline)) was 233.3 pg/mg, the “urine sTNFR1 corrected for creatinine” value (sTNFR1; 4 weeks) was 345.2 pg/mg and the “urine sTNFR1 corrected for creatinine” value (sTNFR1; 7 weeks) was 363.4 pg/mg. The “urine concentration of sTNFR2 corrected for urine creatinine” value (from here on “urine concentration of sTNFR2 corrected”) (sTNFR2; 0 weeks (baseline)) was 4561 pg/mg, the “urine concentration of sTNFR2 corrected” value (sTNFR2; 4 weeks) was 3302 pg/mg and the “urine concentration of sTNFR2 corrected” value (sTNFR2; 7 weeks) was 3264 pg/mg. The “change in urine TNFR2-to-creatinine from baseline versus placebo (FIG. 3)” value (sTNFR2; Px-UNx rats, 3 mg/kg, p.o., 4 and 7 weeks) was “decreasing levels of TNFR2 but much less compared to the placebo control group”, the “difference in ACR effect between the two doses” value ([1]; 0.3 vs 0.625 mg/kg daily, each subgroup, 4 weeks) was “No statistic significant difference between the two doses” and the “ACR reduction in macroalbuminuria versus microalbuminuria sub-group” value ([1]; 4 weeks, doses pooled) was “statistic significant higher reduction in ACR”. The “Average baseline ACR” value ([1]; Macroalbuminuria (ACR>300 mg/g) patients, n = 11, baseline) was 691 mg/g, the “ACR reduction (%)” value ([1]; Macroalbuminuria patients, n = 11, 4 weeks vs baseline, doses pooled) was 26.2% and the “Average ACR (4 weeks)” value ([1]; Macroalbuminuria patients, n = 11, after 4 weeks) was 510 mg/g. The “Average baseline ACR” value ([1]; Microalbuminuria (ACR 30-300 mg/g) patients, n = 38, baseline) was 91.8 mg/g, the “ACR reduction (%)” value ([1]; Microalbuminuria patients, n = 38, 4 weeks vs baseline, doses pooled) was 20.9% and the “Average ACR (4 weeks)” value ([1]; Microalbuminuria patients, n = 38, after 4 weeks) was 72.6 mg/g. For the same compound, the “reduction in ACR from baseline” value ([1]; both subgroups (micro- and macroalbuminuria), 4 weeks) was “statistically significant reduction in ACR”.
